Measurements reported in ChEMBL document CHEMBL5725458, “Histone deacetylase inhibitors and compositions and methods of use thereof” (2018).

Target: Histone deacetylase 4 (Homo sapiens, UniProt P56524)
Assay: HDAC4 Biochemical: The Class I HDAC activity of Class IIa Histone Deacetylase (HDAC) inhibitors was quantified by measuring the cellular histone deacetylase enzymatic activity using the fluorogenic substrate, Boc-Lys(Ac)-AMC. This was performed according to the procedure in Example 17, using Boc-Lys(Ac)-AMC substrate in place of Boc-Lys(TFA)-AMC.

Sequence of Histone deacetylase 4 (P56524 whole entry): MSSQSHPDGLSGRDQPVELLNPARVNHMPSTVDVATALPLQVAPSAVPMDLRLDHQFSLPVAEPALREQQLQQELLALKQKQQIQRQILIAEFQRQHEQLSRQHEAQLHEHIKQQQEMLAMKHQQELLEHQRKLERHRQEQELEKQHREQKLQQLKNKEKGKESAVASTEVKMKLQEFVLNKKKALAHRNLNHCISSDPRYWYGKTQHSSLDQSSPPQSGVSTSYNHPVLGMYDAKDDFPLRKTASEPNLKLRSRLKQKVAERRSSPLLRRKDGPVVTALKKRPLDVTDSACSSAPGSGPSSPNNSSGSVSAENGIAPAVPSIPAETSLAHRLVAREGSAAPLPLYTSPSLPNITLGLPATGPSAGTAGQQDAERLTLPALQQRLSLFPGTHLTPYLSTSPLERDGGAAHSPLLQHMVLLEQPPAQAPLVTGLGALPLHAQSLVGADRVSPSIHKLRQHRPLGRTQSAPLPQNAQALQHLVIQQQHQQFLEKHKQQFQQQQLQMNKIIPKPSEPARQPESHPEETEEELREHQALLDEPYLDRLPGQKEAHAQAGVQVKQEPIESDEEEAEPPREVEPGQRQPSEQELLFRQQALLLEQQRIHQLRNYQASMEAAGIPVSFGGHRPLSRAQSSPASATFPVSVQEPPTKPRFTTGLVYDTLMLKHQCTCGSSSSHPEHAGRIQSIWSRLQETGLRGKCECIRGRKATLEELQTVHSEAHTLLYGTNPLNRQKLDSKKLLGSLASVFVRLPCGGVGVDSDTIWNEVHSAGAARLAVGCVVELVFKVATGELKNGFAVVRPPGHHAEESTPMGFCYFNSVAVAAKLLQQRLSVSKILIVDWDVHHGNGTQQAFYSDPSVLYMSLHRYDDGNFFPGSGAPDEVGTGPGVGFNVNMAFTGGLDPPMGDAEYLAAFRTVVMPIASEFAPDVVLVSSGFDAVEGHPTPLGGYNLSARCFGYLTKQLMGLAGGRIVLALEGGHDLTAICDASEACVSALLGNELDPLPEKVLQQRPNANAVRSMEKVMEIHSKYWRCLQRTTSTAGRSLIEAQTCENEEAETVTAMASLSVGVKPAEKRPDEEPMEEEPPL

Structure (SMILES): O=C(NC1(CN2CC3CCC(C3)C2)CC1)c1ccc(-c2noc(C(F)(F)F)n2)cc1
- IC50: 330 nM
